Measured values taken from ChEMBL document CHEMBL5614382, “Discovery of a new 1-(phenylsulfonyl)-1H-indole derivative targeting the EphA2 receptor with antiproliferative activity on U251 glioblastoma cell line” (Eur J Med Chem, 2024).

Columns and labels:
[1] = target: T1, Ephrin type-A receptor 3 (Mus musculus, UniProt P29319); assay: Displacement of biotinylated Fc-tagged ephrin-A1 from recombinant N/C-terminal 6-his tagged mouse EphA3 (Glu21 to His541 residues) preincubated for 1 hr followed by ephrin-A1-Fc addition and measured after 4 to 5 hrs by ELISA assay
T1 sequence (P29319 whole entry): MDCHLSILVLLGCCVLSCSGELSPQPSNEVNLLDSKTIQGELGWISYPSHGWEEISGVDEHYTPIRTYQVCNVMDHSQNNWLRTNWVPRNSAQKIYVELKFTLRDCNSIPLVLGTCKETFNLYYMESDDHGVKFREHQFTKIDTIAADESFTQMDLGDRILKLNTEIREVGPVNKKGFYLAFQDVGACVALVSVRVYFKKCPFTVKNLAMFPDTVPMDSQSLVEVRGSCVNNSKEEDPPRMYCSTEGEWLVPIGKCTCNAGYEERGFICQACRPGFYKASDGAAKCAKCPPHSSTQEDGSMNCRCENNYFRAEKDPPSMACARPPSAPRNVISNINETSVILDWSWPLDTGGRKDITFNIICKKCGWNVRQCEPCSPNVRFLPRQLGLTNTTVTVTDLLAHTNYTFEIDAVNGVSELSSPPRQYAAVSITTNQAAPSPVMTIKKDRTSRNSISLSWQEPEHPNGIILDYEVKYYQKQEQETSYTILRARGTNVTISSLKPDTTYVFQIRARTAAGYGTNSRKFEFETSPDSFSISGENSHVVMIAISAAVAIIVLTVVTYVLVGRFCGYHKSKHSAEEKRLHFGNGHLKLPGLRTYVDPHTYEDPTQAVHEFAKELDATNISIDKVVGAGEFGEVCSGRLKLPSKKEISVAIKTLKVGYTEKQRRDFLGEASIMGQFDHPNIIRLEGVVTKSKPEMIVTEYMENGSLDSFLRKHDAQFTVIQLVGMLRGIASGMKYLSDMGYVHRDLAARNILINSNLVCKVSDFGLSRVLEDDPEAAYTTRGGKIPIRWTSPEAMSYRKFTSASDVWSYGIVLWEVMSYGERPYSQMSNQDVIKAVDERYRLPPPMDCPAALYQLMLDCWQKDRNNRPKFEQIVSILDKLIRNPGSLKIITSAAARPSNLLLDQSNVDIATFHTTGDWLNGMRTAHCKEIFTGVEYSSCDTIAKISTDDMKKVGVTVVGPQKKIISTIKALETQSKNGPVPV

[2] = target: T2, Ephrin type-B receptor 1 (Rattus norvegicus, UniProt P09759); assay: Displacement of biotinylated Fc-tagged ephrin-B1 from N/C-terminal recombinant rat EphB1 (Met18 to Gln538 residues) preincubated for 1 hr followed by ephrin-B1-Fc addition and measured after 4 to 5 hrs by ELISA assay
T2 sequence (P09759 whole entry): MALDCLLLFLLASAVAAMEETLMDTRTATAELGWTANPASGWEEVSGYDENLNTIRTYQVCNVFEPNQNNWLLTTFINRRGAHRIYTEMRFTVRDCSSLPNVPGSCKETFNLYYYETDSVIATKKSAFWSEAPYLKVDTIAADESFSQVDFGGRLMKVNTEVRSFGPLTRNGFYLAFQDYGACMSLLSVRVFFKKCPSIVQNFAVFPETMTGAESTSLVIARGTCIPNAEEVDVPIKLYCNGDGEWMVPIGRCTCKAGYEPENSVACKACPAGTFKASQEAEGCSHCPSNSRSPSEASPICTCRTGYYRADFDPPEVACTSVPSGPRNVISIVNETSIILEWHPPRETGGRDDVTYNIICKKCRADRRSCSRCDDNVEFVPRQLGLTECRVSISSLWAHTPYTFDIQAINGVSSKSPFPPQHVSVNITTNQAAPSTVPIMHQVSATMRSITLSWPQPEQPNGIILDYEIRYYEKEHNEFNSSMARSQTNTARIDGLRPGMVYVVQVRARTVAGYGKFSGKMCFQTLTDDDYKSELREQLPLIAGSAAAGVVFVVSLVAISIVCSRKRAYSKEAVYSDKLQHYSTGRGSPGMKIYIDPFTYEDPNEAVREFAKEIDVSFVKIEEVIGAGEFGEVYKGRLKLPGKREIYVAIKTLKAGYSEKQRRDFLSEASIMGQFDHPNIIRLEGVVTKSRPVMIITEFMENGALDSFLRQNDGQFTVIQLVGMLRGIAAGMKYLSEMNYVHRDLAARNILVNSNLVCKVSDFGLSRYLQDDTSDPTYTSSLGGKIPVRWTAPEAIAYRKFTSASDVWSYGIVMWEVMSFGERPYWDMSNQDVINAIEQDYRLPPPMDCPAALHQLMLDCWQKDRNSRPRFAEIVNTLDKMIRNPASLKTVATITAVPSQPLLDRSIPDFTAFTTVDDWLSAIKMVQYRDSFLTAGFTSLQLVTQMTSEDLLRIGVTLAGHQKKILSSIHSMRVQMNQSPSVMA

Row | Structure (SMILES) | IC50 [1] [µM] | IC50 [2] [µM]
1 | C[C@H](CCC(=O)N[C@H](CC(=O)O)Cc1c[nH]c2ccccc12)[C@H]1CC[C@H]2[C@@H]3CC=C4C[C@@H](O)CC[C@]4(C)[C@H]3CC[C@]12C | 4.1 | 7.7
2 | C[C@H](CCC(=O)N[C@H](CC(=O)O)Cc1cn(S(=O)(=O)c2ccc(C(F)(F)F)cc2)c2ccccc12)[C@H]1CC[C@H]2[C@@H]3CC=C4C[C@@H](O)CC[C@]4(C)[C@H]3CC[C@]12C | 7.6 | > 30
3 | C[C@H](CCC(=O)N[C@H](CC(=O)O)Cc1cn(S(=O)(=O)c2ccccc2)c2ccccc12)[C@H]1CC[C@H]2[C@@H]3CC=C4C[C@@H](O)CC[C@]4(C)[C@H]3CC[C@]12C | 11 | > 30
